# Assay results reported in US10856562B2, “Flavor composition and edible compositions containing same” (MARS, INCORPORATED, priority 2013, dated 2020).
# Square brackets hold non-standard residues; d marks the D form. Ends that are not written are not given here. pGlu = O=C1CC[C@@H](C(=O)O)N1
# System: panelists
# Test: Consensus attribute scores of flavor enhancers in Uncle Ben's Garden Vegetable Ready rice
# Type: in vivo, human
# Design: key to Cooked White Rice / Vegetable Oil / Vegetable Complex / Cooked Green Vegetable / Cooked Corn / Sweet (BASIC TASTES) / Salt (BASIC TASTES) / Mouthdrying (Texture) / Residual Mouthcoating (Texture) / Total Aromatics / Bitter (BASIC TASTES): 15-point scale, 0 = none, 15 = very strong
# Details: for Black Pepper / Cooked Corn / Cooked Green Vegetable / Cooked White Rice / Dehydrated onion/garlic / HVP/Brothy / Heat (Chemical Feeling Factors) / Mineral/Flint / Mouthdrying (Texture) / Residual Mouthcoating (Texture) / Salt (BASIC TASTES) / Sweet (BASIC TASTES) / Total Aromatics / Umami (Chemical Feeling Factors) / Vegetable Complex / Vegetable Oil / Bitter (BASIC TASTES) / Salt Burn (Chemical Feeling Factors): rice
# Protocol: Descriptive attributes (e.g., taste, flavor and chemical feeling factors) of three use levels of pGlu-Cys (FE-35), pGlu-Cys-Gly (FE-36), pGlu-Cys-Cys (FE-37), pGlu-Cys-Val (FE-38) and pGlu-Val-Cys (UE-30) flavor composition peptides were determined. The three use levels were as follows: 1.0 ppb, 10.0 ppb and 100.0 ppb.
# Data was collected for the attributes of the product in-mouth for the use levels according to the following protocol: • The samples were analyzed for flavor by six to nine members of a panel, trained and experienced in flavor evaluation using the Spectrum™ method. Samples were evaluated across multiple panel sessions. • The strength of each attribute was rated on a 15-point scale, where 0=none and 15=very strong. • This scale incorporates the ability to use tenths of a point and therefore has the potential of 150 scale differentiations. • The scale may be expanded beyond 15 points to include extreme ratings if necessary.
# Preparation of Rice Samples • Each flavor enhancer was tested in Uncle Ben's Garden Vegetable Ready rice matrix at 3 different concentrations: 1 ppb, 10 ppb and 100 ppb. A total of 15 points with flavor enhancers were prepared for sensory evaluation. Additionally, 15 control samples were prepared. Each point had 2 samples (test and control) and was made from one pouch of rice. • Directions to prepare the solutions: • The 15 ready- to eat pouches were microwaved according to the procedure found on the back of the pouch: (1) squeeze pouch to separate rice, (2) tear two inches to vent, (3) heat on High for 90 seconds and (4) remove from microwave using COOL TOUCH area on untorn side. • From each pouch 124.75 g (test sample) and 99.8 g (control) were weighed out. The test sample had the flavor enhancer and/or salt. The control sample only had salt added. • The flavor enhancer and/or salt (non-iodized salt) were weighed in a soufflé cup. The weighed amount of flavor enhancer and/or salt was added to the sub-sampled rice. The rice was stirred and mixed to evenly distribute the salt added. • Some rice was placed back into the soufflé cup, sealed, and the cup was shook to get the flavor enhancer and/or salt that may have been stuck on the walls of the soufflé cup. After shaking the soufflé cup, the rice was added back to the original sub-sampled rice and stirred/mixed again. • Each sample (test and control) was microwaved for another 30 seconds (or until warm) to ensure that the salts/compounds were going completely into the solutions. • All samples (test and control) were tasted at the same temperature. • Each test sample had 0.2% NaCl added and flavor enhancers at the specified concentrations.
# A summary of the concentrations of NaCl and flavor composition peptides in the rice samples is described in table 23. The first value of each cell represents a single sample amount of an ingredient in milligrams, and the second number in parenthesis is a doubling of the ingredient (in grams) for use in a doubled size sample.
# The panelists evaluated each sample for the attributes described by table 25.
substance,measurement,setting,value
[pGlu]-Cys [FE-35],Umami feeling factor in rice compared to the Control,10 & 100 ppb,higher
same,Salt in rice compared to the Control,100 ppb,saltier than the Control
same,"Heat in rice, not seen in the Control",all concentrations,low level
same,Cooked green vegetable in rice compared to the Control,"all samples (1, 10, 100 ppb)",low level of cooked green vegetable
same,"Mouthdrying in rice, not seen in the Control","all samples (1, 10, 100 ppb)",low level
same,Total aromatics in rice,at 50 ppm,slightly lower
same,Black Pepper,1.0 ppb (5 ppm),1.0
same,Cooked Corn,1.0 ppb (5 ppm),0.5
same,Cooked Green Vegetable,1.0 ppb (5 ppm),0.5
same,Cooked White Rice,1.0 ppb (5 ppm),3.0
same,Dehydrated onion/garlic,1.0 ppb (5 ppm),0.8
same,HVP/Brothy,1.0 ppb (5 ppm),1.0
same,Heat (Chemical Feeling Factors),1.0 ppb (5 ppm),0.8
same,Mineral/Flint,1.0 ppb (5 ppm),0.8
same,Mouthdrying (Texture),1.0 ppb (5 ppm),1.5
same,Residual Mouthcoating (Texture),1.0 ppb (5 ppm),1.0
same,Salt (BASIC TASTES),1.0 ppb (5 ppm),13.0
same,Sweet (BASIC TASTES),1.0 ppb (5 ppm),3.5
same,Total Aromatics,1.0 ppb (5 ppm),6.3
same,Umami (Chemical Feeling Factors),1.0 ppb (5 ppm),1.0
same,Vegetable Complex,1.0 ppb (5 ppm),1.0
same,Vegetable Oil,1.0 ppb (5 ppm),0.5
same,Black Pepper,10.0 ppb (50 ppm),0.8
same,Cooked Corn,10.0 ppb (50 ppm),0.8
same,Cooked Green Vegetable,10.0 ppb (50 ppm),0.8
same,Cooked White Rice,10.0 ppb (50 ppm),3.0
same,Dehydrated onion/garlic,10.0 ppb (50 ppm),0.8
same,HVP/Brothy,10.0 ppb (50 ppm),1.0
same,Heat (Chemical Feeling Factors),10.0 ppb (50 ppm),0.5
same,Mineral/Flint,10.0 ppb (50 ppm),1.3
same,Mouthdrying (Texture),10.0 ppb (50 ppm),1.0
same,Residual Mouthcoating (Texture),10.0 ppb (50 ppm),1.0
same,Salt (BASIC TASTES),10.0 ppb (50 ppm),13.5
same,Sweet (BASIC TASTES),10.0 ppb (50 ppm),3.5
same,Total Aromatics,10.0 ppb (50 ppm),6.0
same,Umami (Chemical Feeling Factors),10.0 ppb (50 ppm),3.0
same,Vegetable Complex,10.0 ppb (50 ppm),1.3
same,Vegetable Oil,10.0 ppb (50 ppm),0.5
same,Black Pepper,100 ppb (50 ppm),1.0
same,Cooked Corn,100 ppb (50 ppm),0.8
same,Cooked Green Vegetable,100 ppb (50 ppm),0.8
same,Cooked White Rice,100 ppb (50 ppm),3.0
same,Dehydrated onion/garlic,100 ppb (50 ppm),1.0
same,HVP/Brothy,100 ppb (50 ppm),1.0
same,Heat (Chemical Feeling Factors),100 ppb (50 ppm),0.5
same,Mineral/Flint,100 ppb (50 ppm),1.0
same,Mouthdrying (Texture),100 ppb (50 ppm),1.0
same,Residual Mouthcoating (Texture),100 ppb (50 ppm),1.0
same,Salt (BASIC TASTES),100 ppb (50 ppm),15.0
same,Sweet (BASIC TASTES),100 ppb (50 ppm),3.5
same,Total Aromatics,100 ppb (50 ppm),6.5
same,Umami (Chemical Feeling Factors),100 ppb (50 ppm),4.0
same,Vegetable Complex,100 ppb (50 ppm),1.5
same,Vegetable Oil,100 ppb (50 ppm),0.8
[pGlu]-Cys-Cys (cysteine pairing not given here) [FE-37],Bitter in rice,"all samples (1, 10, 100 ppb)",low in bitter
same,Cooked green vegetable in rice compared to the Control,"all samples (1, 10, 100 ppb)",low level of cooked green vegetable
same,"Mineral/flint note in rice, not seen in the Control","all samples (1, 10, 100 ppb)",low mineral/flint note
same,"Mouthdrying in rice, not seen in the Control","all samples (1, 10, 100 ppb)",have mouthdrying
same,Salt burn feeling factor in rice compared to the Control,"all samples (1, 10, 100 ppb)",higher
same,Salt in rice compared to the Control,"all samples (1, 10, 100 ppb)",saltier than the Control
same,Umami feeling factor in rice compared to the Control,"all samples (1, 10, 100 ppb)",higher
same,Bitter (BASIC TASTES),1.0 ppb (5 ppm),0.8
same,Black Pepper,1.0 ppb (5 ppm),1.0
same,Cooked Corn,1.0 ppb (5 ppm),0.5
same,Cooked Green Vegetable,1.0 ppb (5 ppm),0.5
same,Cooked White Rice,1.0 ppb (5 ppm),3.0
same,Dehydrated onion/garlic,1.0 ppb (5 ppm),1.3
same,HVP/Brothy,1.0 ppb (5 ppm),1.0
same,Mineral/Flint,1.0 ppb (5 ppm),0.8
same,Mouthdrying (Texture),1.0 ppb (5 ppm),1.0
same,Residual Mouthcoating (Texture),1.0 ppb (5 ppm),1.0
same,Salt (BASIC TASTES),1.0 ppb (5 ppm),15.0
same,Salt Burn (Chemical Feeling Factors),1.0 ppb (5 ppm),0.8
same,Sweet (BASIC TASTES),1.0 ppb (5 ppm),3.0
same,Total Aromatics,1.0 ppb (5 ppm),6.0
same,Umami (Chemical Feeling Factors),1.0 ppb (5 ppm),1.5
same,Vegetable Complex,1.0 ppb (5 ppm),1.0
same,Vegetable Oil,1.0 ppb (5 ppm),0.8
same,Bitter (BASIC TASTES),10.0 ppb (50 ppm),1.5
same,Black Pepper,10.0 ppb (50 ppm),1.0
same,Cooked Corn,10.0 ppb (50 ppm),0.5
same,Cooked Green Vegetable,10.0 ppb (50 ppm),0.5
same,Cooked White Rice,10.0 ppb (50 ppm),3.0
same,Dehydrated onion/garlic,10.0 ppb (50 ppm),1.5
same,HVP/Brothy,10.0 ppb (50 ppm),1.5
same,Mineral/Flint,10.0 ppb (50 ppm),0.8
same,Mouthdrying (Texture),10.0 ppb (50 ppm),1.5
same,Residual Mouthcoating (Texture),10.0 ppb (50 ppm),1.0
same,Salt (BASIC TASTES),10.0 ppb (50 ppm),15.5
same,Salt Burn (Chemical Feeling Factors),10.0 ppb (50 ppm),1.3
same,Sweet (BASIC TASTES),10.0 ppb (50 ppm),3.5
same,Total Aromatics,10.0 ppb (50 ppm),6.5
same,Umami (Chemical Feeling Factors),10.0 ppb (50 ppm),2.5
same,Vegetable Complex,10.0 ppb (50 ppm),1.0
same,Vegetable Oil,10.0 ppb (50 ppm),0.8
same,Bitter (BASIC TASTES),100 ppb (50 ppm),1.0
same,Black Pepper,100 ppb (50 ppm),1.0
same,Cooked Corn,100 ppb (50 ppm),0.8
same,Cooked Green Vegetable,100 ppb (50 ppm),0.8
same,Cooked White Rice,100 ppb (50 ppm),3.0
same,Dehydrated onion/garlic,100 ppb (50 ppm),1.5
same,HVP/Brothy,100 ppb (50 ppm),1.5
same,Mineral/Flint,100 ppb (50 ppm),1.0
same,Mouthdrying (Texture),100 ppb (50 ppm),1.5
same,Residual Mouthcoating (Texture),100 ppb (50 ppm),1.0
same,Salt (BASIC TASTES),100 ppb (50 ppm),16.0
same,Salt Burn (Chemical Feeling Factors),100 ppb (50 ppm),1.8
same,Sweet (BASIC TASTES),100 ppb (50 ppm),3.5
same,Total Aromatics,100 ppb (50 ppm),6.5
same,Umami (Chemical Feeling Factors),100 ppb (50 ppm),3.0
same,Vegetable Complex,100 ppb (50 ppm),1.5
same,Vegetable Oil,100 ppb (50 ppm),0.8
[pGlu]-Cys-Gly [FE-36],Salt burn in rice,100 ppb,low level of salt burn
same,Bitter in rice,"all samples (1, 10, 100 ppb)",slightly bitter
same,Cooked green vegetable in rice compared to the Control,"all samples (1, 10, 100 ppb)",low level of cooked green vegetable
same,"Mouthdrying in rice, not seen in the Control","all samples (1, 10, 100 ppb)",have mouthdrying
same,Umami feeling factor in rice compared to the Control,"all samples (1, 10, 100 ppb)",higher in umami
same,Bitter (BASIC TASTES),1.0 ppb (5 ppm),0.5
same,Black Pepper,1.0 ppb (5 ppm),1.0
same,Cooked Corn,1.0 ppb (5 ppm),1.0
same,Cooked Green Vegetable,1.0 ppb (5 ppm),0.5
same,Cooked White Rice,1.0 ppb (5 ppm),3.0
same,Dehydrated onion/garlic,1.0 ppb (5 ppm),1.0
same,HVP/Brothy,1.0 ppb (5 ppm),1.0
same,Mouthdrying (Texture),1.0 ppb (5 ppm),1.0
same,Residual Mouthcoating (Texture),1.0 ppb (5 ppm),1.0
same,Salt (BASIC TASTES),1.0 ppb (5 ppm),11.5
same,Salt Burn (Chemical Feeling Factors),1.0 ppb (5 ppm),0.0
same,Sweet (BASIC TASTES),1.0 ppb (5 ppm),3.5
same,Total Aromatics,1.0 ppb (5 ppm),6.0
same,Umami (Chemical Feeling Factors),1.0 ppb (5 ppm),1.5
same,Vegetable Complex,1.0 ppb (5 ppm),1.5
same,Vegetable Oil,1.0 ppb (5 ppm),0.8
same,Bitter (BASIC TASTES),10.0 ppb (50 ppm),1.0
same,Black Pepper,10.0 ppb (50 ppm),1.0
same,Cooked Corn,10.0 ppb (50 ppm),1.0
same,Cooked Green Vegetable,10.0 ppb (50 ppm),1.0
same,Cooked White Rice,10.0 ppb (50 ppm),3.0
same,Dehydrated onion/garlic,10.0 ppb (50 ppm),1.5
same,HVP/Brothy,10.0 ppb (50 ppm),1.0
same,Mouthdrying (Texture),10.0 ppb (50 ppm),1.5
same,Residual Mouthcoating (Texture),10.0 ppb (50 ppm),1.0
same,Salt (BASIC TASTES),10.0 ppb (50 ppm),13.5
same,Salt Burn (Chemical Feeling Factors),10.0 ppb (50 ppm),0.0
same,Sweet (BASIC TASTES),10.0 ppb (50 ppm),3.5
same,Total Aromatics,10.0 ppb (50 ppm),6.5
same,Umami (Chemical Feeling Factors),10.0 ppb (50 ppm),3.0
same,Vegetable Complex,10.0 ppb (50 ppm),2.0
same,Vegetable Oil,10.0 ppb (50 ppm),0.8
same,Bitter (BASIC TASTES),100 ppb (50 ppm),0.5
same,Black Pepper,100 ppb (50 ppm),0.8
same,Cooked Corn,100 ppb (50 ppm),0.8
same,Cooked Green Vegetable,100 ppb (50 ppm),0.8
same,Cooked White Rice,100 ppb (50 ppm),3.0
same,Dehydrated onion/garlic,100 ppb (50 ppm),1.3
same,HVP/Brothy,100 ppb (50 ppm),1.0
same,Mouthdrying (Texture),100 ppb (50 ppm),2.0
same,Residual Mouthcoating (Texture),100 ppb (50 ppm),1.0
same,Salt (BASIC TASTES),100 ppb (50 ppm),13.5
same,Salt Burn (Chemical Feeling Factors),100 ppb (50 ppm),1.0
same,Sweet (BASIC TASTES),100 ppb (50 ppm),3.5
same,Total Aromatics,100 ppb (50 ppm),6.3
same,Umami (Chemical Feeling Factors),100 ppb (50 ppm),4.0
same,Vegetable Complex,100 ppb (50 ppm),1.5
same,Vegetable Oil,100 ppb (50 ppm),0.8
